Measured values: patent publication US20250129430A1, “HIGH ATP-AFFINITY PROTEIN AS THERAPEUTIC TARGET FOR INTRACTABLE CANCER MOLECULAR SUBTYPES AND INHIBITOR THEREOF” (VeraVerse Co., Ltd., priority 2021, published 2025)

Key:
Type in all cases: cell-based, human
SNU1 = experiment: Cell viability drug screen, 12-point dose-response AUC; details: SNU1 cells; 72 hours
Outline: (§1)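 Twelve half-log concentrations per compound were tested on gastric cancer cells with an EMT phenotype (5×10^3/well, dosed 24 h post-seeding). Viability after 72 h was quantified via luminescence relative to 0.5% DMSO, and repeats were averaged.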

NCC20 = experiment: as above; details: NCC20 cells; 72 hours
Outline: as §1

SNU638 = experiment: as above; details: SNU638 cells; 72 hours
Outline: as §1

KATO3 = experiment: as above; details: KATO3 cells; 72 hours
Outline: as §1

SNU484 = experiment: as above; details: SNU484 cells (SEM subtype); 72 hours
Outline: as §1

YCC2 = experiment: as above; details: YCC2 cells; 72 hours
Outline: as §1

SNU1750 = experiment: as above; details: SNU1750 cells (SEM subtype); 72 hours
Outline: as §1

MKN45 = experiment: as above; details: MKN45 cells (non-SEM subtype); 72 hours
Outline: (§2)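 Gastric cancer lines seeded 5×10^3 cells/well, dosed after 24 h with half-log 12-point compound dilutions (DMSO 0.5% control), then 72 h at 37 °C. Viability by luminescence, normalized to DMSO; AUC by trapezoidal method, averaged over repeats.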

AGS = experiment: as above; details: AGS cells (non-SEM subtype); 72 hours
Outline: as §2

SNU1967 = experiment: as above; details: SNU1967 cells; 72 hours
Outline: as §1

NCC24 = experiment: as above; details: NCC24 cells; 72 hours
Outline: as §1

MKN28 = experiment: as above; details: MKN28 cells; 72 hours
Outline: as §1

OCUM1 = experiment: as above; details: OCUM1 cells; 72 hours
Outline: as §1

SNU16 = experiment: as above; details: SNU16 cells; 72 hours
Outline: as §1

NCC59 = experiment: as above; details: NCC59 cells; 72 hours
Outline: as §1

YCC11 = experiment: as above; details: YCC11 cells (SEM subtype); 72 hours
Outline: as §1

SNU216 = experiment: as above; details: SNU216 cells (non-SEM subtype); 72 hours
Outline: as §2

YCC3 = experiment: as above; details: YCC3 cells; 72 hours
Outline: as §1

SNU668 = experiment: as above; details: SNU668 cells (SEM subtype); 72 hours
Outline: as §1

MKN1 = experiment: as above; details: MKN1 cells; 72 hours
Outline: as §1

NCI_N87 = experiment: as above; details: NCI_N87 cells; 72 hours
Outline: as §1

SK4 = experiment: as above; details: SK4 cells (SEM subtype); 72 hours
Outline: as §1

MKN74 = experiment: as above; details: MKN74 cells; 72 hours
Outline: as §2

SNU620 = experiment: as above; details: SNU620 cells; 72 hours
Outline: as §1

SNU719 = experiment: as above; details: SNU719 cells; 72 hours
Outline: as §2

NCC19 = experiment: as above; details: NCC19 cells; 72 hours
Outline: as §1

Hs746T = experiment: as above; details: Hs746T cells (SEM subtype); 72 hours
Outline: as §1

SNU601 = experiment: as above; details: SNU601 cells; 72 hours
Outline: as §1

FU97 = experiment: as above; parameters: Average Area Under the Viability Curve (AUC), AUC norm value: scale not given here; details: FU97 cells; 72 hours
Outline: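 Trapezoidal AUC of a 12-point, DMSO-normalized dose-response curve. Luminescent viability was measured after 72 h of exposure at 37° C to half-log serial dilutions (0.5% DMSO control), dosed 24 h after plating FU97 cells at 5×10^3 per well.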

[1] = test system: non-SEM-type gastric cancer cell line; experiment: Cell viability drug screen, AUC summary over non-SEM-type lines; details: in the non-SEM-type gastric cancer cell line

## c1ccc2c(-c3cnn4cc(-c5ccc(N6CCNCC6)cc5)cnc34)ccnc2c1 [LDN193189]
SNU1
  Average Area Under the Viability Curve (AUC), AUC norm value: 0.8706
NCC20
  Average Area Under the Viability Curve (AUC), AUC norm value: 0.02059
SNU638
  Average Area Under the Viability Curve (AUC), AUC norm value: −0.9699
KATO3
  Average Area Under the Viability Curve (AUC), AUC norm value: 0.6205
SNU484
  Average Area Under the Viability Curve (AUC), AUC norm value: −0.5999
YCC2
  Average Area Under the Viability Curve (AUC), AUC norm value: 0.1163
SNU1750
  Average Area Under the Viability Curve (AUC), AUC norm value: −0.4695
MKN45
  Average Area Under the Viability Curve (AUC), AUC norm value: 0.9516
AGS
  Average Area Under the Viability Curve (AUC), AUC norm value: −0.1896
SNU1967
  Average Area Under the Viability Curve (AUC), AUC norm value: −1.419
NCC24
  Average Area Under the Viability Curve (AUC), AUC norm value: −0.1464
MKN28
  Average Area Under the Viability Curve (AUC), AUC norm value: 0.5758
OCUM1
  Average Area Under the Viability Curve (AUC), AUC norm value: −1.113
SNU16
  Average Area Under the Viability Curve (AUC), AUC norm value: 1.525
NCC59
  Average Area Under the Viability Curve (AUC), AUC norm value: 1.892
YCC11
  Average Area Under the Viability Curve (AUC), AUC norm value: −0.7359
SNU216
  Average Area Under the Viability Curve (AUC), AUC norm value: −0.7838
YCC3
  Average Area Under the Viability Curve (AUC), AUC norm value: 0.08342
SNU668
  Average Area Under the Viability Curve (AUC), AUC norm value: 0.06394
MKN1
  Average Area Under the Viability Curve (AUC), AUC norm value: 0
NCI_N87
  Average Area Under the Viability Curve (AUC), AUC norm value: 1.172
SK4
  Average Area Under the Viability Curve (AUC), AUC norm value: −0.5339
MKN74
  Average Area Under the Viability Curve (AUC), AUC norm value: −1.246
SNU620
  Average Area Under the Viability Curve (AUC), AUC norm value: −2.131
SNU719
  Average Area Under the Viability Curve (AUC), AUC norm value: 0.6043
NCC19
  Average Area Under the Viability Curve (AUC), AUC norm value: 0.06094
Hs746T
  Average Area Under the Viability Curve (AUC), AUC norm value: −0.2954
SNU601
  Average Area Under the Viability Curve (AUC), AUC norm value: 3.699
FU97
  Average Area Under the Viability Curve (AUC), AUC norm value: −0.1434
[1]
  AUC value: high
